Measurements reported in patent US7638509B2, “Diene compounds and formulations” (priority 2003, dated 2009).
Residue numbers refer to the chain shown, from its start.

Assays:
wild-type AR = molecular target: T1, wild-type AR (Homo sapiens, UniProt P10275); assay: Competitive [3H]-R1881 ligand binding assay, extracts of COS-1 transfected with wild-type AR; design: expressed in transfected cells; host or cells: COS-1; conditions: 1 nM [3H]-R1881, unlabeled ligand 1-10,000 nM, relative to DHT
T1 sequence (P10275 1-920): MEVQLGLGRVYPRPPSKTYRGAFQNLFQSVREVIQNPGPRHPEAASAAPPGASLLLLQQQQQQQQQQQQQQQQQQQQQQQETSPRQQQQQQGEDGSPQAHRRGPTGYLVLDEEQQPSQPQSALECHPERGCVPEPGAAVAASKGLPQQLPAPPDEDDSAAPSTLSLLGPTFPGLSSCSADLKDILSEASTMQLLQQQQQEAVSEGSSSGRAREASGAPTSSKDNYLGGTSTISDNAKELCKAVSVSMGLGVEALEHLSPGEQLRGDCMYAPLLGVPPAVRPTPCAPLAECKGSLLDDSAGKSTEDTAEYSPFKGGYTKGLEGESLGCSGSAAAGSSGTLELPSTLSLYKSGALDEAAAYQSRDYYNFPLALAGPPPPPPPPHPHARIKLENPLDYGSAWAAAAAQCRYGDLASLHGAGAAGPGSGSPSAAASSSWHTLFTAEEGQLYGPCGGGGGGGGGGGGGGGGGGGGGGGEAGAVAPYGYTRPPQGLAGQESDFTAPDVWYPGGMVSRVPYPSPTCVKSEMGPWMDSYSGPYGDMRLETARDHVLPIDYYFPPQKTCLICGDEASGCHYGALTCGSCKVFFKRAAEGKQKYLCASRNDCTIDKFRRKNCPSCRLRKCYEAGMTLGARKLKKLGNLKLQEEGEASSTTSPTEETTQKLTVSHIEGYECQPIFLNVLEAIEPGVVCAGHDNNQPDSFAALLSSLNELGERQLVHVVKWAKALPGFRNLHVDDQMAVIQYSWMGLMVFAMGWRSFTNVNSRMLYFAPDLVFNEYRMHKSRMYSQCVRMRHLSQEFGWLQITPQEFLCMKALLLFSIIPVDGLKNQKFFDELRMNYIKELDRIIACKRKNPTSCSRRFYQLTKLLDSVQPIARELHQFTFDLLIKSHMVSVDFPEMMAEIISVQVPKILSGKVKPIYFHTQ
Experimental: Ligand Binding Assay. Whole cell extracts from COS-1 with transient transfection of pSG5-AR, or LNCaP without transfection, were incubated for 2 h at 37° C. with 1 nM [^3H]-synthetic androgen methyltrienolone (R1881) in the presence and absence of increasing concentrations (1-10,000 nM) of unlabeled ligands. Then, hydroxyapatite (Bio-Rad) was added and stirred for 15 min at 4° C. After centrifugation and washing, radioactivity was determined by scintillation counting.
Clinically available antiandrogens have an affinity for the AR, allowing a competition with androgens for binding. To determine whether ADEK has this common feature of AR antagonists, the competitive androgen binding assay was performed.

mutant AR = molecular target: T2, mutant AR (Homo sapiens, UniProt P10275, T878A); assay: AR transcription, MMTV-Luc reporter in LNCaP cells; assay type: cell-based; conditions: MMTV-Luc
T2 construct: LNCaP without transfection; endogenous in cells; host or cells: LNCaP
T2 sequence (P10275 1-920 T878A): T1 sequence (P10275 1-920) with T878A
Experimental: Cell Culture, Transfection, and Reporter Gene Assay. The human prostate cancer cell lines, LNCaP, PC-3, and DU145, and non-prostate cancer cell line COS-1 were maintained in RPMI or Dulbecco's modified Eagle's medium (DMEM) (Life Technologies) supplemented with 10% fetal bovine serum (FBS). […] Briefly, cells seeded to reach a density of 50-60% confluence in 12 well tissue culture plates were transfected with 1.5 μg of DNA according to “SuperFect transfection” instructions (Qiagen). After 2-3 h incubation, cells were treated with medium supplemented with charcoal-stripped FBS containing either ethanol or ligands for 24 h. The cells were then harvested and whole cell extracts were used for Luc assay. The Luc activity was determined using a Dual-Luciferase Reporter Assay System (Promega) and luminometer.
The pSG5-AR was co-transfected in COS-1 cells. […] Values were obtained from the mean±SD of at least three determinations. DU145 cells were transfected with the pSG5-AR and MMTV-Luc in the presence or absence of pSG5-ARA70. […] Values were obtained for the mean±SD of at least three determinations.

CC(=O)O[C@H]1C=C[C@@]2(C)C(=CC[C@@H]3[C@@H]2CC[C@@]2(C)[C@H]3CCC23OCCO3)C1 [ADEK, 3β-acetoxy-17,17-ethylenedioxyandrosta-1,5-diene]
RBA in COS-1 with AR (wild-type AR): 6.0
DHT-induced mutant AR transcription suppressed to (DHT = 100%) (mutant AR; 1 nM DHT, dose-dependent): 17%
agonist / androgenic activity on mutant AR transcription (in words) (mutant AR; HF at 10 μM): lower than that of casodex
